Data published in patent publication US8841254B2, “Method for treatment of anxiety” (Howard Florey Institute of Experimental Physiology and …, priority 2001, dated 2014).
pKi: −log10 of the molar value.

Experiments:
[1] = target: T1, relaxin binding sites in THP-1 cells (Homo sapiens, UniProt Q9HBX9); assay: THP-1 cell binding assay (competition for 33P-labeled H2 relaxin (B33))
T1 construct: induce cAMP production in the human monocytic cell line (THP-1); endogenous in cells; host or cells: THP-1 (human monocytic cell line)
T1 sequence (Q9HBX9 1-757): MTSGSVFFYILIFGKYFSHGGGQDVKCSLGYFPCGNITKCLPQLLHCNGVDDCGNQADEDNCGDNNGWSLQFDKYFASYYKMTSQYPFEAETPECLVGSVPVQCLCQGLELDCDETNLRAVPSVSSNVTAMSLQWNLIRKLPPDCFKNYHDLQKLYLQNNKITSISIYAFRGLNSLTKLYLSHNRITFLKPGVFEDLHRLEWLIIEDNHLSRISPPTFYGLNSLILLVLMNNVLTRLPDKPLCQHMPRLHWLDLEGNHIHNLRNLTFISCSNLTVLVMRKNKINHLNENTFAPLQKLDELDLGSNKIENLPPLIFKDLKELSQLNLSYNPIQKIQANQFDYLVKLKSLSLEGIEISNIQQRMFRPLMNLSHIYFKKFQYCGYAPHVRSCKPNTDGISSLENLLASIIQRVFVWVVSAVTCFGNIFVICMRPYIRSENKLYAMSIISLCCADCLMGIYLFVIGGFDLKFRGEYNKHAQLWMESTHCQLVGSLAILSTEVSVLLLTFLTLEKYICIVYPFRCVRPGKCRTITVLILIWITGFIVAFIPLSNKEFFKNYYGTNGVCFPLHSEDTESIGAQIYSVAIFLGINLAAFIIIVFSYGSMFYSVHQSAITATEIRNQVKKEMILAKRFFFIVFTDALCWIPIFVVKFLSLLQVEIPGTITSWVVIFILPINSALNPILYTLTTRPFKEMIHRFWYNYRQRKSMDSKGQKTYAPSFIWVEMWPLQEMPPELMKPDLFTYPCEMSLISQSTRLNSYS
Description: THP-1 cells were spun down and resuspended in binding buffer (20 mM HEPES, 50 mM NaCl, 1.5 mM CaCl2, 1% BSA, 0.1 mg/ml lysine, 0.01% […], pH 7.5) (Parsell et al (1996) J. Biol. Chem. 271, 27936-27941) to give 2×10^6 cells/well in a 96-well plate. The cells were incubated in binding buffer with ^33P-labeled H2 (B33) relaxin (100 pM: labeled as previously described (Tan et al (1999) Br. J. Pharmacol. 127, 91-98) at 25° C. for 90 min in the absence or presence of increasing concentrations of unlabeled H1, H2 and H3 relaxin ([…]). Non-specific binding was defined with H2 relaxin (1 μM). Cells were harvested using a Packard 96-well plate cell harvester and Whatman GF/C glass fibre filters treated with 0.5% polyethylenimine. The filters were washed three times with modified binding buffer (20 mM HEPES, 50 mM NaCl, 1.5 mM CaCl2), dried in a 37° C. oven, and the radioactivity counted by liquid scintillation spectrometry (TopCount™, Canberra Packard, Australia).

[2] = system: goat anti-H2 relaxin antibody; assay: Antibody crossreactivity radioimmunoassay (displacement of 125I-labeled H2 relaxin); assay type: binding; details: FIG. 4
Description: The ability of well characterized human relaxin antibodies to recognize H3 relaxin was tested in comparison to H1 and H2 relaxins by radioimmunoassay. Briefly, goat anti-H2 relaxin (Lucas et al (1989) J. Endocrinol. 120, 449-57) was coated onto 96 well ELISA plates (Disposable Products, Adelaide, Australia) at a dilution of 1:1000 with 0.05M sodium carbonate buffer at 4° C. overnight. After washing twice with PBS-T (phosphate buffered saline; 0.05% Tween 20, pH 7.4) dilutions of human relaxin peptides dissolved in 50 μl of assay buffer (1% BSA in PBS-T) were added together with 50,000 cpm ^125I-labeled relaxin, in 50 μl of assay buffer. H2 relaxin was ^125I-labeled and purified by HPLC (Palejwala et al (1998) Endocrinology 139, 1208-1212). After an overnight incubation at 4° C. the plates were washed twice with PBS-T. The antibody-bound-^125I-labeled H2 relaxin was collected by the addition of 1M NaOH and decanted into tubes for counting on a Packard 5010 gamma counter (Canberra Packard). Experiments were performed at least twice and similar results obtained. Data was plotted as the mean±SEM from one representative experiment performed in triplicate and plotted using PRISM.

[3] = target: T2, human relaxin receptors (THP-1 cells) (Homo sapiens, UniProt Q9HBX9); assay: THP-1 cell bioassay (cAMP production); assay type: cell-based; details: doses up to 1 μM
T2 construct: induce cAMP production in the human monocytic cell line (THP-1); endogenous in cells; host or cells: THP-1 (human monocytic cell line)
T2 sequence (Q9HBX9 1-757): T1 sequence (Q9HBX9 1-757)
Description: Biol. Chem. 271, 27936-27941), with the following modifications; […] The plate was then briefly centrifuged, the media removed and the cells resuspended in lysis buffer. cAMP levels were measured in the lysates using the cAMP Biotrak EIA system (Amersham International, Aylesbury, UK). […] Data represent the mean±SEM of three experiments performed in quadruplicate, and are plotted using PRISM (Graphpad Inc., San Diego, Calif.).

ability to stimulate cAMP responses [3] | Compound | pKi [1] | ability to displace 125I-labeled H2 relaxin binding to the anti-H2 relaxin antibody [2]
– | CC[C@H](C)[C@@H]1NC(=O)[C@H](Cc2ccccc2)NC(=O)[C@H](CCC(=O)O)NC(=O)[C@H](CCCNC(=N)N)NC(=O)CNC(=O)[C@@H](NC(=O)[C@H](CC(C)C)NC(=O)[C@H](CCCNC(=N)N)NC(=O)[C@@H](NC(=O)CNC(=O)[C@H](Cc2ccc(O)cc2)NC(=O)[C@@H]2CCCN2C(=O)[C@H](C)NC(=O)[C@H](C)NC(=O)[C@@H](N)CCCNC(=N)N)C(C)C)CSSC[C@@H]2NC(=O)[C@@H](NC(=O)[C@H](CO)NC(=O)[C@H](CO)NC(=O)[C@H](CO)NC(=O)[C@H](CC(C)C)NC(=O)CNC(=O)[C@H](C)NC(=O)[C@H](CC(C)C)NC(=O)[C@@H](NC(=O)[C@@H](N)CC(=O)O)C(C)C)CSSC[C@H](NC(=O)CNC(=O)[C@H](Cc3c[nH]c4ccccc34)NC(=O)[C@H](CCCCN)NC2=O)C(=O)N[C@@H](CO)C(=O)N[C@@H](CCCCN)C(=O)N[C@@H](CO)C(=O)N[C@@H](CCC(=O)O)C(=O)N[C@@H]([C@@H](C)CC)C(=O)N[C@@H](CO)C(=O)N[C@@H](CO)C(=O)N[C@@H](CC(C)C)C(=O)N[C@H](C(N)=O)CSSC[C@@H](C(=O)NCC(=O)NCC(=O)N[C@@H](CO)C(=O)N[C@@H](CCCNC(=N)N)C(=O)N[C@@H](Cc2c[nH]c3ccccc23)C(N)=O)NC(=O)[C@H]([C@@H](C)O)NC(=O)[C@H](Cc2ccccc2)NC(=O)[C@H]([C@@H](C)CC)NC(=O)[C@H](C(C)C)NC(=O)[C@H](C)NC(=O)[C@H](CCCNC(=N)N)NC1=O [H3 relaxin, Human Relaxin H3 [hR]x-3 A (1-24) Amide-B (1-27) Amide] | 7.50 | poor cross reactivity
– | H2 relaxin: recombinant H2 relaxin, a gift from the Connetics Corporation | – | able to displace
inability | bovine insulin [bINSL] | – | –
inability | hINSL3: Human INSL3 synthesized using the same methodology used for ovine INSL3 (chain 1 AAATNPARYCCLSGCTQQDLLTLCPY; chain 2 PTPEMREKLCGHHFVRALVRVCGGPRWSTEA) | – | –
